Peptide text beside a SMILES is read from it.
Legend:
[1] = tested on: P. aeruginosa (ATCC 9027); type: cell-based, Pseudomonas aeruginosa
Experimental: (§1) As a previous study described in detail, the ability of R2AW and its analogues to inhibit and eradicate the formation of biofilm was investigated. The MBIC is the lowest concentration which inhibits the formation of biofilm. The MBEC is the minimum concentration that eradicates biofilm. Six bacterial strains were used, as described above. Briefly, the bacteria were cultured and then diluted to 5 × 10^5 CFU/mL. In MBIC assays, 1 μL of each concentration of R2AW and its analogues (ranging from 512 × 10^2 μM to 100 μM) was mixed with 99 μL of diluted bacterial suspension in a 96-well plate for 16-20 h at 37 °C. As for MBEC assays, 100 μL of cultured bacteria were seeded in a 96-well plate and incubated on the shaking incubator at 37 °C overnight for biofilm formation. Subsequently, each well was rinsed twice with 100 μL sterile PBS to remove planktonic cells, and then replaced with 100 μL of each concentration (ranging from 512 μM to 1 μM) of peptides. After 24 h incubation, the biofilm was washed twice with 100 μL of PBS and fixed with methanol. Next, the same volume of 0.1% crystal violet solution (Sigma-Aldrich, Gillingham, UK) was added to each well to stain the biofilm. After that, 100 μL of 30% of acetic acid (Sigma-Aldrich, Gillingham, UK) was transferred to each well for dissolution. The solutions were transferred into a new 96-well plate and the absorbances of wells was monitored using a Synergy HT plate reader set to 595 nm.

U251MG = type: cell-based, human; details: 24 h
Experimental: (§2) Five human cancer cell lines of non-small-cell lung cancer H838, human prostate carcinoma PC-3, human neuronal glioblastoma U251MG, human breast cancer cell MCF-7, and colorectal carcinoma HCT116 were used to detect the antiproliferative abilities of R2AW and its five analogues. According to the procedures in a previous article, cells (8000 cells/well) were seeded into the 96-well tissue culture plates and incubated at 37 °C with 5% CO2 overnight. The solutions of R2AW and its analogues at concentrations of 10^−4 M to 10^−9 M were prepared in the serum-free medium. Next, cells in each well were treated with 100 μL of each peptide solution for 24 h. Subsequently, 10 μL of 5 mg/mL MTT (3-(4, 5-Dimethylthiazol-2-yl-)-2, 5-Diphehyltetrazolium Bromide) was added to each well followed by 37 °C incubation for 2 h. After that, the liquid in each well was removed and 100 μL of DMSO was added to dissolve the purple formazan. The plate was placed on a shaking incubator for 10 min, and the absorbance was detected at 550 nm using a Synergy HT plate reader (Biotech, Minneapolis, MN, USA).

PC-3 = type: cell-based, human; details: 24 h
Experimental: as §2

H838 = type: cell-based, human; details: 24 h
Experimental: as §2

MCF-7 = type: cell-based, human; details: 24 h
Experimental: as §2

HCT116 = type: cell-based, human; details: 24 h
Experimental: as §2

S. aureus (NCTC 10788) [2] = type: cell-based, Staphylococcus aureus
Experimental: as §1

E. faecium (NTCC 12697) [3] = type: cell-based
Experimental: as §1

S. aureus (NCTC 10788) [4] = test: microbe, parasite or virus in culture; type: cell-based; details: NCTC 10788, 18 h
Text: (§3) The MIC and MBC assays were used to assess the inhibitory activities of all 5 analogues of R2AW on the growth of planktonic microorganisms. The MIC is the lowest concentration that prevents the viable growth of bacteria. The MBC is the lowest concentration that results in bacterial death. Six microorganisms were used to detect the antimicrobial activity of peptides, including Gram-positive bacteria S. aureus (NCTC 10788), MRSA (NCTC 12493), Enterococcus faecalis (E. faecalis) (NCTC 12697), Gram-negative bacteria E. coli […], Klebsiella pneumoniae (K. pneumoniae) (ATCC 43816), and Pseudomonas aeruginosa (P. aeruginosa) (ATCC 9027). According to the assay described previously, the microorganisms were inoculated at 37 °C overnight and diluted to 5 × 10^5 CFU/mL after reaching the logarithmic growth period. The peptide stock solution at the concentration of 512 × 10^2 μM was prepared and diluted to 100 μM by a 2-fold dilution. One μL of each concentration of peptide solution was incubated with 99 μL of bacterial subculture in the 96-well plate for 18 h at 37 °C. The absorbance was determined at a wavelength of 550 nm using a Synergy HT plate reader (Bio Tek, Washington, DC, USA). […] As for those wells that were clearly visible, 20 μL of the solution was dropped onto the Mueller Hinton agar (MHA) dish and then incubated at 37 °C overnight. The lowest concentration with no colony growth was determined as the MBC.

MRSA (NCTC 12493) [5] = test: microbe, parasite or virus in culture; type: cell-based; details: MRSA (NCTC 12493)
Text: as §3

E. faecium (NTCC 12697) [6] = test: microbe, parasite or virus in culture; type: cell-based; details: NTCC 12697, 18 h
Text: as §3

[7] = tested on: K. pneumoniae (ATCC 43816); type: cell-based, Klebsiella pneumoniae
Experimental: as §1

[8] = tested on: P. aeruginosa (ATCC 9027); type: cell-based; details: ATCC 9027, 18 h
Text: as §3

[9] = tested on: K. pneumoniae (ATCC 43816); type: cell-based; details: ATCC 43816, 18 h
Text: as §3

E. coli (ATCC 8739) [10] = type: cell-based; details: ATCC 8739, 18 h
Text: as §3

E. coli (ATCC 8739) [11] = type: cell-based, Escherichia coli
Experimental: as §1

MRSA (NCTC 12493) [12] = type: cell-based, methicillin-resistant Staphylococcus aureus; details: NCTC 12493
Experimental: as §1

Structure (SMILES) | MBEC [1] [µM] | MBIC [1] [µM] | IC50 (U251MG) [µM] | IC50 (PC-3) [µM] | IC50 (H838) [µM] | IC50 (MCF-7) [µM] | IC50 (HCT116) [µM] | MBEC (S. aureus (NCTC 10788) [2]) [µM] | MBIC (S. aureus (NCTC 10788) [2]) [µM] | MBEC (E. faecium (NTCC 12697) [3]) [µM] | MBIC (E. faecium (NTCC 12697) [3]) [µM] | MBC (S. aureus (NCTC 10788) [4]) [µg/mL] | MIC (S. aureus (NCTC 10788) [4]) [µg/mL] | MBC (MRSA (NCTC 12493) [5]) [µg/mL] | MIC (MRSA (NCTC 12493) [5]) [µg/mL] | MBC (E. faecium (NTCC 12697) [6]) [µg/mL] | MIC (E. faecium (NTCC 12697) [6]) [µg/mL] | MBEC [7] | MBIC [7] | MBC [8] [µg/mL] | further results
CSCC[C@H](NC(=O)[C@H](Cc1ccccc1)NC(=O)CN)C(=O)N[C@@H](CC(=O)O)C(=O)N[C@H](C(=O)N[C@@H](C)C(=O)N[C@@H](CCCCN)C(=O)N[C@@H](CC(N)=O)C(=O)N[C@H](C(=O)N[C@@H](C)C(=O)N[C@@H](CCCCN)C(=O)N[C@@H](CC(N)=O)C(=O)N[C@H](C(=O)N[C@@H](C)C(=O)N[C@@H](C)C(=O)N[C@H](C(=O)N[C@@H](CC(C)C)C(=O)N[C@@H](CC(C)C)C(=O)N[C@@H](CC(=O)O)C(=O)N[C@@H](CCCCN)C(=O)N[C@@H](CC(C)C)C(=O)N[C@@H](CCCCN)C(N)=O)[C@@H](C)O)C(C)C)C(C)C)[C@@H](C)O [R2AW(1-22)-NH2] (H-GFMDTAKNVAKNVAATLLDKLK-NH2) | >512 | >512 | 516 | 194 | 58.9 | 374 | 609 | > 512 | 128 | >512 | >512 | 150 | 150 | 601 | 601 | 601 | 601 | 512/>512 µM | 512/>512 µM | > 1202 | MIC [8]: 1202 µg/mL; MBC [9]: 601 µg/mL; MIC [9]: 601 µg/mL; MBC (E. coli (ATCC 8739) [10]): 301 µg/mL; MIC (E. coli (ATCC 8739) [10]): 300 µg/mL; MBEC (E. coli (ATCC 8739) [11]): 512 µM; MBIC (E. coli (ATCC 8739) [11]): 256 µM
CSCC[C@H](NC(=O)[C@H](Cc1ccccc1)NC(=O)CN)C(=O)N[C@@H](CC(=O)O)C(=O)N[C@H](C(=O)N[C@@H](C)C(=O)N[C@@H](CCCCN)C(=O)N[C@@H](CC(N)=O)C(=O)N[C@H](C(=O)N[C@@H](C)C(=O)N[C@@H](CCCCN)C(=O)N[C@@H](CC(N)=O)C(=O)N[C@H](C(=O)N[C@@H](C)C(=O)N[C@@H](C)C(=O)N[C@H](C(=O)N[C@@H](CC(C)C)C(=O)N[C@@H](CC(C)C)C(=O)N[C@@H](CC(=O)O)C(=O)N[C@@H](CCCCN)C(=O)N[C@@H](CC(C)C)C(=O)N[C@@H](CCCCN)C(=O)O)[C@@H](C)O)C(C)C)C(C)C)[C@@H](C)O [R2AW(1-22)] (H-GFMDTAKNVAKNVAATLLDKLK-OH) | >512 | >512 | 1820 | 1480 | 1420 | 894 | 1120 | >512 | >512 | >512 | >512 | > 1202 | > 1203 | > 1202 | > 1203 | > 1202 | > 1203 | >512 µM | >512 µM | > 1202 | MBEC (MRSA (NCTC 12493) [12]): >512 µM; MBIC (MRSA (NCTC 12493) [12]): >512 µM; MIC [8]: > 1203 µg/mL; MBC [9]: > 1202 µg/mL; MIC [9]: > 1203 µg/mL; MBC (E. coli (ATCC 8739) [10]): > 1202 µg/mL; MIC (E. coli (ATCC 8739) [10]): > 1203 µg/mL; MBEC (E. coli (ATCC 8739) [11]): >512 µM; MBIC (E. coli (ATCC 8739) [11]): >512 µM

Reference: PMC10812557, “Progressive Design of a Ranatuerin-2 Peptide from Amolops wuyiensis: Enhancement of Bioactivity and In Vivo Efficacy” (Antibiotics, 2023)
